Source: paper PMC4368603, “Cardiac Contractility Structure-Activity Relationship and Ligand-Receptor Interactions; the Discovery Of Unique and Novel Molecular Switches in Myosuppressin Signaling” (PLoS ONE, 2015)
“And” between values parts separate entries of the source, which are not always exact repeats. Equal entries are not always repeated. Square brackets hold non-standard residues; d marks the D form. Ends that are not written are not given here. Peptide text beside a SMILES is read from it. pGlu = O=C1CC[C@@H](C(=O)O)N1

Key:
R. prolixus heart = format: in vivo, Rhodnius prolixus; details: for EC50: 5th instar semi-intact preparation, 25 ± 2°C, heart rate as % of saline, non-linear regression, N = 10 animals per condition, read-out: EC50, dose-dependent decrease of R. prolixus heart rate (cardiac contractility)
Procedure: R. prolixus were maintained at 28°C under high humidity in a cycle of 12h:12h (L:D). The insects used were 5th instar 2–3 weeks post-ecdysis fed on chicken blood.
Fifth instar R. prolixus were placed ventral surface down on a dish with paraffin wax and dissected under physiological saline. Segments four to seven from the dorsal abdominal cuticle were removed using minuten pins leaving the dorsal vessel exposed. The semi-intact preparation was equilibrated in 20 μl saline for 20 minutes at room temperature (25° ± 2°C), replacing the fluid with fresh saline every five minutes. Heart rate was measured under saline after the final bath, counting the number of contractions in one minute. This counting was replicated three times for each preparation, and the results of the three countings were averaged. After this, the saline was removed and replaced with an equal volume of solution containing a peptide. The heart rate was measured and expressed as % of the control (saline). Ten animals were analyzed for control and for each experiment. The investigator who performed the bioassay was unaware of the peptide structures being tested.
Dose response curves were generated and the effective concentrations at half-maximal response (EC50) values were calculated using a non-linear regression with GraphPad Prism version 6.03. Activities of RhpMS, DrmMS, and analogs were compared to saline, set at 100%, using Single Factor ANOVA to calculate p values; significance was set at p ≤ 0.05.

gut = gut motility SAR; cited from earlier work
Source text: (§1) Table 3 DrmMS and analogs: structures and activities. | column: Gut || [6–10]DrmMS was the heart rate active core, yet [4–10]DrmMS was the gut motility active core. […] We believed DrmMS-DrmMS-R1 and DrmMS-DrmMS-R2 interactions would reflect our SAR data. N-terminal truncated and alanyl-substituted analogs (Table 3) were docked to the receptors; additional data are available in Supporting Information. In DrmMS docked to DrmMS-R1 (Fig. 4, Table 4), F7 made multipl ...

heart = details: cardiac contractility / heart rate SAR; cited from earlier work
Source text: as §1, with “Heart” for “Gut”

Row | Compound | EC50 (R. prolixus heart) [nM] | Heart Rate Mean ± S.E.M., percent of saline (R. prolixus heart; peptide at 1 μM, saline = 100%, ten animals per experiment) | Gut activity (gut) | Heart activity (heart)
1 | CC[C@H](C)[C@H](NC(=O)[C@H](CC(=O)O)NC(=O)[C@@H]1CCC(=O)N1)C(=O)N[C@@H](CC(=O)O)C(=O)N[C@@H](Cc1c[nH]cn1)C(=O)N[C@H](C(=O)N[C@@H](Cc1ccccc1)C(=O)N[C@@H](CCSC)C(=O)N[C@@H](CCCNC(=N)N)C(=O)N[C@@H](Cc1ccccc1)C(N)=O)C(C)C [RhpMS] ([pGlu]DIDHVFMRF-NH2) | 140 | 4 % of saline and 4 ± 3 % of saline | – | –
2 | DHVFLRF-NH2 [[4–10]DrmMS, N-terminal truncated DrmMS analog DHVFLRF-NH2] | – | – | active core | agonist
3 | DHVFMRF-NH2 [[4–10]RhpMS] | 32 | – | – | –
4 | FLRF-NH2 [[7–10]DrmMS, N-terminal truncated DrmMS analog FLRF-NH2] | – | – | inactive | inactive
5 | HVFLRF-NH2 [[5–10]DrmMS, N-terminal truncated DrmMS analog HVFLRF-NH2] | – | – | antagonist | agonist
6 | TDVDHVFARF-NH2 [[A8] DrmMS, alanyl-substituted DrmMS analog […]-NH2] | – | – | inactive | agonist
7 | TDVDHVFLRF-NH2 [DrmMS] | 50 | – | – | –
8 | VFLRF-NH2 [[6–10]DrmMS, N-terminal truncated DrmMS analog VFLRF-NH2] | – | – | inactive | active core
9 | Y-T(Bpa)VDHVFLRF-NH2 [Y-Bpa2DrmMS] | – | – | agonist | agonist
